# Experimental data: patent US20230086703A1, “N-(4-(5-chloropyridin-3-yl)phenyl)-2-(2-(cyclopropanesulfonamido)pyrimidin-4-yl) butanamide derivatives and related compounds as human CTPS1 inhibitors for the treatment of proliferative diseases” (Step Pharma S.A.S., priority 2019, published 2023)
# Target: T1, human CTPS1 (Homo sapiens, UniProt P17812)
# T1 construct: FLAG (with GG linker); His8 (with GG linker); purchased Proteros biostructures GmbH
# T1 sequence (P17812 1-591): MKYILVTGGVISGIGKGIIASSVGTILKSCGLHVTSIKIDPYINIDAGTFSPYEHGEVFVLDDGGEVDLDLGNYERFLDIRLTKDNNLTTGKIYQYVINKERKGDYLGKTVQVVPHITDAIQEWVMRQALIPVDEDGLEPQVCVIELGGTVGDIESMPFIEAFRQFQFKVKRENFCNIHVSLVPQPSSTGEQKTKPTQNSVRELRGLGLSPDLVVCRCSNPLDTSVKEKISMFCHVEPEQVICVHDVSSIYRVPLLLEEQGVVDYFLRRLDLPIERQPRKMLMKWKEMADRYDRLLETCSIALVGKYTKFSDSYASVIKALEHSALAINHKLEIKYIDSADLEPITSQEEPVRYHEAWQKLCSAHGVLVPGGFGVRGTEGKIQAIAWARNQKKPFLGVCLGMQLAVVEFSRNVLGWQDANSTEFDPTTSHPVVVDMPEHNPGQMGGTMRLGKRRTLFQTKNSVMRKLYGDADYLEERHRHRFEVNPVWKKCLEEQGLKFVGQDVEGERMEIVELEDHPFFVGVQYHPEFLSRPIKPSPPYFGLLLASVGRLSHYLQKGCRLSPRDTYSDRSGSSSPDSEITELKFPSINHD
# Assay: Human CTPS1 enzyme inhibition, ADP-Glo Max assay
# Assay type: biochemical
# Conditions: ADP-Glo Max assay; Table 10; read-out: Human CTPS1 Enzyme Inhibition, IC50 grouped by potency range (CTPS1)
# Experimental: The enzyme inhibitory activities of compounds invented against the target of interest were determined using the ADP-Glo™ Max assay (Promega, UK). Assays for human CTPS1 were performed in 1× assay buffer containing 50 mM Tris, 10 mM MgCl2, 0.01% Tween-20, pH to 8.0 accordingly. Finally, immediately before use, L-cysteine was added to the 1× assay buffer to a final concentration of 2 mM. All reagents are from Sigma-Aldrich unless specified otherwise.
# 3× human CTPS1 protein was prepared in 1× assay buffer to the final working protein concentration required for the reaction. A 2 uL volume per well of 3× human CTPS1 protein was mixed with 2 uL per well of 3× test compound (compound prepared in 1× assay buffer to an appropriate final 3× compound concentration respective to the concentration response curve designed for the compounds under test) for 10 minutes at 25° C. […] ADP-Glo™ Max reagent was added for 60 minutes (6 μL per well) and subsequently ADP-Glo™ Max development reagent was added for 60 minutes (12 uL per well) prior to signal detection in a microplate reader (EnVision® Multilabel Reader, Perkin Elmer). Following each reagent addition over the course of the assay, assay plates were pulse centrifuged for 30 seconds at 500 rpm.
# In all cases, the enzyme converts ATP to ADP and the ADP-Glo™ Max reagent subsequently depletes any remaining endogenous ATP in the reaction system. The ADP-Glo™ Max detection reagent converts the ADP that has been enzymatically produced back into ATP and using ATP as a substrate together with luciferin for the enzyme luciferase, light is generated which produces a detectable luminescence. […] The percentage inhibition produced by each concentration of compound was calculated using the equation shown below: […]
row,Compound,IC50 [nM]
1,"CC(C)(C(=O)Nc1ccc(-c2cncc(S(C)(=O)=O)c2)cc1)c1csc(NS(=O)(=O)C2CC2)n1 [T49, 2-(2-(cyclopropanesulfonamido)thiazol-4-yl)-2-methyl-N-(4-(5-(methylsulfonyl)pyridin-3-yl)phenyl)propanamide]",100 to 1000
2,"CC(C)(C(=O)Nc1ccc(-c2cncc(N3CCOCC3)n2)cc1)c1csc(NS(=O)(=O)C2CC2)n1 [T53, 2-(2-(cyclopropanesulfonamido)thiazol-4-yl)-2-methyl-N-(4-(6-morpholinopyrazin-2-yl)phenyl)propanamide]",1000 to 10000
3,"CC(C)(C(=O)Nc1ccc(-c2cncc(OC3CCC3)n2)cc1)c1csc(NS(=O)(=O)C2CC2)n1 [T54, N-(4-(6-cyclobutoxypyrazin-2-yl)phenyl)-2-(2-(cyclopropanesulfonamido)thiazol-4-yl)-2-methylpropanamide]",100 to 1000
4,"O=C(Nc1ccc(-c2ccccc2)cc1)C(F)(F)c1csc(NS(=O)(=O)C2CC2)n1 [T60, N-([1,1′-biphenyl]-4-yl)-2-(2-(cyclopropanesulfonamido)thiazol-4-yl)-2,2-difluoroacetamide]",100 to 1000
5,"CCC(C(=O)Nc1ccc(-c2cccnc2)cn1)c1csc(NS(=O)(=O)C2CC2)n1 (stereo not drawn) [T62, N-([3,3′-bipyridin]-6-yl)-2-(2-(cyclopropanesulfonamido)thiazol-4-yl)butanamide]",100 to 1000
6,"CC(C)(C(=O)Nc1ccc(-c2ccccc2)cn1)c1csc(NS(=O)(=O)C2CC2)n1 [T63, 2-(2-(cyclopropanesulfonamido)thiazol-4-yl)-2-methyl-N-(5-phenylpyridin-2-yl)propanamide]",100 to 1000
7,"O=C(Cc1csc(NS(=O)(=O)C2CC2)n1)Nc1ccc(-c2cncnc2)cn1 [T64, 2-(2-(cyclopropanesulfonamido)thiazol-4-yl)-N-(5-(pyrimidin-5-yl)pyridin-2-yl)acetamide]",100 to 1000
8,"O=C(Cc1csc(NS(=O)(=O)C2CC2)n1)Nc1ccc(-c2cccnc2)cn1 [T65, N-([3,3′-bipyridin]-6-yl)-2-(2-(cyclopropanesulfonamido)thiazol-4-yl)acetamide]",100 to 1000
9,"O=C(Cc1csc(NS(=O)(=O)C2CC2)n1)Nc1ccc(-c2ccccc2)nc1 [T66, 2-(2-(cyclopropanesulfonamido)thiazol-4-yl)-N-(6-phenylpyridin-3-yl)acetamide]",100 to 1000
10,"O=C(Cc1csc(NS(=O)(=O)C2CC2)n1)Nc1ccc(-c2cccnc2)nc1 [T67, N-([2,3′-bipyridin]-5-yl)-2-(2-(cyclopropanesulfonamido)thiazol-4-yl)acetamide]",100 to 1000
11,"CC(C)(C(=O)Nc1ccc(-c2cccnn2)cc1)c1csc(NS(=O)(=O)C2CC2)n1 [T68, 2-(2-(cyclopropanesulfonamido)thiazol-4-yl)-2-methyl-N-(4-(pyridazin-3-yl)phenyl)propanamide]",100 to 1000
12,"CC(C)(C(=O)Nc1ccc(-c2ccccc2)cc1)c1csc(NS(=O)(=O)C2CC2)n1 [T97, N-([1,1′-biphenyl]-4-yl)-2-(2-(cyclopropanesulfonamido)thiazol-4-yl)-2-methylpropanamide]",100 to 1000
13,"Cc1ccncc1-c1ccc(NC(=O)Cc2csc(NS(=O)(=O)C3CC3)n2)cc1 [T98, 2-(2-(cyclopropanesulfonamido)thiazol-4-yl)-N-(4-(4-methylpyridin-3-yl)phenyl)acetamide]",100 to 1000
14,"Cc1ccc(-c2ccc(NC(=O)Cc3csc(NS(=O)(=O)C4CC4)n3)cc2)cn1 [T101, 2-(2-(cyclopropanesulfonamido)thiazol-4-yl)-N-(4-(6-methylpyridin-3-yl)phenyl)acetamide]",1000 to 10000
15,"Cc1ncccc1-c1ccc(NC(=O)C(C)(C)c2csc(NS(=O)(=O)C3CC3)n2)cc1 [T103, 2-(2-(cyclopropanesulfonamido)thiazol-4-yl)-2-methyl-N-(4-(2-methylpyridin-3-yl)phenyl)propanamide]",100 to 1000
16,"O=C(Nc1ccc(-c2cccnc2)cc1)C(=O)c1csc(NS(=O)(=O)C2CC2)n1 [T104, 2-(2-(cyclopropanesulfonamido)thiazol-4-yl)-2-oxo-N-(4-(pyridin-3-yl)phenyl)acetamide]",100 to 1000
17,"Cc1ccc(-c2ccc(NC(=O)C(C)(C)c3csc(NS(=O)(=O)C4CC4)n3)cc2)cn1 [T105, 2-(2-(cyclopropanesulfonamido)thiazol-4-yl)-2-methyl-N-(4-(6-methylpyridin-3-yl)phenyl)propanamide]",1000 to 10000

# Results, then the compound that gave them:
row,IC50 [nM],Compound
1,< 100,"CC(C)(C(=O)Nc1ccc(-c2cncc(C#N)c2)cc1)c1csc(NS(=O)(=O)C2CC2)n1 [T47, N-(4-(5-cyanopyridin-3-yl)phenyl)-2-(2-(cyclopropanesulfonamido)thiazol-4-yl)-2-methylpropanamide]"
2,< 100,"CC(C)(C(=O)Nc1ccc(-c2cncc(C(F)(F)F)c2)cc1)c1csc(NS(=O)(=O)C2CC2)n1 [T48, 2-(2-(cyclopropanesulfonamido)thiazol-4-yl)-2-methyl-N-(4-(5-(trifluoromethyl)pyridin-3-yl)phenyl)propanamide]"
3,< 100,"COc1cncc(-c2ccc(NC(=O)C(C)(C)c3csc(NS(=O)(=O)C4CC4)n3)c(OC)c2)c1 [T50, 2-(2-(cyclopropanesulfonamido)thiazol-4-yl)-N-(2-methoxy-4-(5-methoxypyridin-3-yl)phenyl)-2-methylpropanamide]"
4,< 100,"CC(C)(C(=O)Nc1ccc(-c2cccc(C(F)(F)F)n2)cn1)c1csc(NS(=O)(=O)C2CC2)n1 [T51, 2-(2-(cyclopropanesulfonamido)thiazol-4-yl)-2-methyl-N-(6-(trifluoromethyl)-[2,3′-bipyridin]-6′-yl)propanamide]"
5,< 100,"CCOc1cncc(-c2ccc(NC(=O)C(C)(C)c3csc(NS(=O)(=O)C4CC4)n3)cc2)n1 [T52, 2-(2-(cyclopropanesulfonamido)thiazol-4-yl)-N-(4-(6-ethoxypyrazin-2-yl)phenyl)-2-methylpropanamide]"
6,< 100,"CCCOc1cncc(-c2ccc(NC(=O)C(C)(C)c3csc(NS(=O)(=O)C4CC4)n3)cc2)n1 [T55, 2-(2-(cyclopropanesulfonamido)thiazol-4-yl)-2-methyl-N-(4-(6-propoxypyrazin-2-yl)phenyl)propanamide]"
7,< 100,"COc1cncc(-c2ccc(NC(=O)C(C)(C)c3csc(NS(=O)(=O)C4CC4)n3)c(F)c2)c1 [T56, 2-(2-(cyclopropanesulfonamido)thiazol-4-yl)-N-(2-fluoro-4-(5-methoxypyridin-3-yl)phenyl)-2-methylpropanamide]"
8,< 100,"COc1cncc(-c2ccc(NC(=O)Cc3csc(NS(=O)(=O)C4CCC4)n3)cc2)n1 [T61, 2-(2-(cyclobutanesulfonamido)thiazol-4-yl)-N-(4-(6-methoxypyrazin-2-yl)phenyl)acetamide]"
9,< 100,"COc1cncc(-c2ccc(NC(=O)Cc3csc(NS(=O)(=O)C4CC4)n3)cc2)n1 [T81, 2-(2-(cyclopropanesulfonamido)thiazol-4-yl)-N-(4-(6-methoxypyrazin-2-yl)phenyl)acetamide]"
10,< 100,"O=C(Cc1csc(NS(=O)(=O)C2CC2)n1)Nc1ccc(-c2cnccn2)cc1 [T82, 2-(2-(cyclopropanesulfonamido)thiazol-4-yl)-N-(4-(pyrazin-2-yl)phenyl)acetamide]"
11,< 100,"CCC(CC)(C(=O)Nc1ccc(-c2cccnc2)cc1)c1csc(NS(=O)(=O)C2CC2)n1 [T92, 2-(2-(cyclopropanesulfonamido)thiazol-4-yl)-2-ethyl-N-(4-(pyridin-3-yl)phenyl)butanamide]"
12,< 100,"CCC(CC)(C(=O)Nc1ccc(-c2cncc(C#N)c2)cc1)c1csc(NS(=O)(=O)C2CC2)n1 [T93, N-(4-(5-cyanopyridin-3-yl)phenyl)-2-(2-(cyclopropanesulfonamido)thiazol-4-yl)-2-ethylbutanamide]"
13,< 100,"Cc1cncc(-c2ccc(NC(=O)Cc3csc(NS(=O)(=O)C4CC4)n3)cc2)c1 [T99, 2-(2-(cyclopropanesulfonamido)thiazol-4-yl)-N-(4-(5-methylpyridin-3-yl)phenyl)acetamide]"
